Common to all, as to type: in vivo
Assay [1] deals with Echinochloa crus-galli. Put plainly: Test Example 1: herbicidal effect test by soil treatment in paddy field. The conditions noted are these: 120 g/10a, paddy soil treatment just after sowing, 14 days after treatment. An outline of the steps: (§1)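 In a greenhouse, puddled paddy soil in Wagner pots held ~3 cm flooding over freshly sown seeds. Treatment was dropwise application of the diluted formulation, 120 g a.i. per 10 are, with two replications; suppression was scored from dry weights after 14 days.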

Assay [2] deals with Lindernia pyxidaria. Described as above. The conditions noted are these: 120 g/10a, paddy soil treatment just after sowing, 14 days after treatment. An outline of the steps:
as §1

For assay [3], the system named is Monochoria vaginalis. Described as above. The conditions noted are these: 120 g/10a, paddy soil treatment just after sowing, 14 days after treatment. The gist of the method: as §1
In assay [4] the test system is Scirpus juncoides. Described as above. Conditions: 120 g/10a, paddy soil treatment just after sowing, 14 days after treatment. An outline of the steps: as §1
In assay [5] the test system is Echinochloa crus-galli. As to the kind of experiment: Test Example 2: herbicidal effect test by treatment during growing period in paddy field. The conditions noted are these: treatment 7 days after sowing, 120 g/10a, evaluated 14 days after treatment. An outline of the steps: (§2)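 Paddy soil in Wagner pots, flooded to ~3 cm; 30 seeds per species sown 0–1 cm deep, greenhouse-grown. Emulsifiable concentrate diluted in water and dripped into flood water 7 days after sowing at 120 g active ingredient per 10 are. Dry-weight suppression vs untreated assessed 14 days post-treatment, two replicates.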

In assay [6] the test system is Lindernia pyxidaria. The description is as above. The conditions noted are these: treatment 7 days after sowing, 120 g/10a, evaluated 14 days after treatment. An outline of the steps: as §2
Assay [7] deals with Monochoria vaginalis. The assay is described as above. The conditions noted are these: treatment 7 days after sowing, 120 g/10a, evaluated 14 days after treatment. The gist of the method: as §2
Assay [8] has as its system Scirpus juncoides. The description is as above. The conditions noted are these: treatment 7 days after sowing, 120 g/10a, evaluated 14 days after treatment. The gist of the method:
as §2

Assay [9] concerns Amaranthus viridis. Put plainly: Test Example 3: herbicidal effect test by soil treatment in upland field. The conditions noted are these: upland field soil treatment 1 day after sowing; 120 g/10a; evaluated 14 days after treatment. As to the method:
(§3) This test was performed with two replications per one formulation concentration plot, and 14 days after the formulation treatments, the weed suppression rate (%) was determined according to the following equation (Math. 1). Weed suppression rate (%)=(1−an average dry weight (g) of plants in treated plots/an average dry weight (g) of plants in untreated plots)×100 [Math. 1]
(§4) A pot having a size of 36 cm^2 was filled with field soil (alluvial soil) and after uniformly mixing the soil of the surface layer of 1 cm with 20 grains of each weed seed of crabgrass, Echinochloa crus-galli, Chenopodium album and Amaranthus viridis, the surface layer was pressed lightly. One day after the sowing, an emulsifiable concentrate prepared according to Formulation Example 5 by using the compound shown in Table 7 below was diluted with water, and the water-diluted formulation was sprayed on the soil surface at a ratio of 100 liter per 10 are. The application rate of the active ingredient, by conversion, corresponded to 120 g per 10 are. Fourteen days after the formulation treatment, the herbicidal effect was evaluated by the same criteria as in Test Example 1.

Assay [10] deals with Chenopodium album. Described as above. The conditions noted are these: upland field soil treatment 1 day after sowing; 120 g/10a; evaluated 14 days after treatment. As to the method:
as §3, §4

In assay [11] the test system is Echinochloa crus-galli. The description is as above. Conditions: upland field soil treatment 1 day after sowing; 120 g/10a; evaluated 14 days after treatment. Here is the method: as §3, §4
In assay [12] the test system is crabgrass. The assay is described as above. Conditions: upland field soil treatment 1 day after sowing; 120 g/10a; evaluated 14 days after treatment. As to the method:
as §3, §4

Assay [13] concerns Amaranthus viridis. Put plainly: Test Example 4: herbicidal effect test by foliage treatment in upland field. Conditions: upland field foliage treatment 7 days after sowing; 120 g/10a; evaluated 14 days after treatment. An outline of the steps:
(§5)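 In this upland pot test, each species is sown at 20 seeds per pot. Spraying follows one week later at a dose of 120 g active ingredient per 10 are. Weed suppression, calculated from average dry weights, is determined 14 days afterward.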

For assay [14], the system named is Chenopodium album. The assay is described as above. The conditions noted are these: upland field foliage treatment 7 days after sowing; 120 g/10a; evaluated 14 days after treatment. The gist of the method: as §5
Assay [15] relates to Echinochloa crus-galli. Described as above. The conditions noted are these: upland field foliage treatment 7 days after sowing; 120 g/10a; evaluated 14 days after treatment. The gist of the method: as §5
The subject of assay [16] is crabgrass. The assay is described as above. Conditions: upland field foliage treatment 7 days after sowing; 120 g/10a; evaluated 14 days after treatment. The gist of the method: as §5

Turning to `CC(C)N(C(=O)n1ncn(S(=O)(=O)C2CC2)c1=O)c1cccc(F)c1F` [Compound 1-198], the “weed suppression rate, Echinochloa crus-galli” value in the assay on Echinochloa crus-galli [1] and in the assay on Echinochloa crus-galli [5] was 100% each time. Also, the “weed suppression rate, Lindemia pyxidaria” value in the assay on Lindernia pyxidaria [2] and with Lindernia pyxidaria [6] was 100% each time. For the same molecule, the “weed suppression rate, Monochoria vaginalis” value in the assay on Monochoria vaginalis [3] and in the assay with Monochoria vaginalis [7] was 100% throughout. The entries for the “weed suppression rate, Scirpus juncoides” value in the assay with Scirpus juncoides [4] and in the assay with Scirpus juncoides [8] were 100% and 80%, respectively. Also, the “herbicidal effect (weed suppression rate), Amaranthus viridis” value (from here on “herbicidal effect … Amaranthus viridis”) was 100% in the assay with Amaranthus viridis [9] and 80% in the assay on Amaranthus viridis [13]. Also, the “herbicidal effect (weed suppression rate), Chenopodium album” value (“herbicidal effect … Chenopodium album” for short) in the assay with Chenopodium album [10] was 100%; in the assay on Chenopodium album [14] it was 80%. Also, the “herbicidal effect (weed suppression rate), Echinochloa crus-galli” value (“herbicidal effect … Echinochloa crus-galli” below) with Echinochloa crus-galli [11] and in the assay on Echinochloa crus-galli [15] was 100% each time. Moreover, the “herbicidal effect (weed suppression rate), Crabgrass” value (“herbicidal effect … Crabgrass” below) in the assay on crabgrass [12] and with crabgrass [16] was 100% throughout.
`Cc1ccc(N(C(=O)n2ncn(S(=O)(=O)C(C)C)c2=O)C(C)C)c(F)c1` [Compound 1-79]: the “weed suppression rate, Echinochloa crus-galli” value in the assay on Echinochloa crus-galli [1] and in the assay on Echinochloa crus-galli [5] was 90% each time. In addition, the “weed suppression rate, Lindemia pyxidaria” value in the assay with Lindernia pyxidaria [2] and in the assay on Lindernia pyxidaria [6] was 80% throughout. Moreover, the “weed suppression rate, Monochoria vaginalis” value in the assay with Monochoria vaginalis [3] and with Monochoria vaginalis [7] was 80% each time. In addition, the “weed suppression rate, Scirpus juncoides” value with Scirpus juncoides [4] and with Scirpus juncoides [8] was 90% throughout. For the same molecule, the “herbicidal effect … Amaranthus viridis” value in the assay with Amaranthus viridis [9] and in the assay with Amaranthus viridis [13] was 90% in each case. Also, the “herbicidal effect … Chenopodium album” value with Chenopodium album [10] and with Chenopodium album [14] was 80% each time. Also, the “herbicidal effect … Echinochloa crus-galli” value in the assay with Echinochloa crus-galli [11] and in the assay with Echinochloa crus-galli [15] was 80% each time. The “herbicidal effect … Crabgrass” value in the assay with crabgrass [12] and in the assay with crabgrass [16] was 90% each time.
For the molecule `Cc1nn(C(=O)N(c2ccc(F)cc2F)C(C)C)c(=O)n1S(=O)(=O)C1CC1` [Compound 1-257], the “weed suppression rate, Echinochloa crus-galli” value in the assay with Echinochloa crus-galli [1] and in the assay on Echinochloa crus-galli [5] was 90% in each case. The “weed suppression rate, Lindemia pyxidaria” value in the assay on Lindernia pyxidaria [2] and in the assay on Lindernia pyxidaria [6] was 80% each time. The “weed suppression rate, Monochoria vaginalis” value in the assay with Monochoria vaginalis [3] and in the assay with Monochoria vaginalis [7] was 80% throughout. For the same molecule, the “weed suppression rate, Scirpus juncoides” value with Scirpus juncoides [4] and in the assay with Scirpus juncoides [8] was 90% throughout. The “herbicidal effect … Amaranthus viridis” value with Amaranthus viridis [9] and in the assay on Amaranthus viridis [13] was 90% throughout. Besides, the “herbicidal effect … Chenopodium album” value with Chenopodium album [10] and with Chenopodium album [14] was 80% throughout. Moreover, the “herbicidal effect … Echinochloa crus-galli” value in the assay with Echinochloa crus-galli [11] and in the assay on Echinochloa crus-galli [15] was 80% each time. Further, the “herbicidal effect … Crabgrass” value in the assay with crabgrass [12] and with crabgrass [16] was 90% throughout.
In the case of `CC(C)N(C(=O)n1ncn(S(=O)(=O)C2CCCCC2)c1=O)c1ccc(F)cc1Cl` [Compound 1-313], the “weed suppression rate, Echinochloa crus-galli” value in the assay with Echinochloa crus-galli [1] and in the assay on Echinochloa crus-galli [5] was 90% throughout. Further, the “weed suppression rate, Lindemia pyxidaria” value in the assay on Lindernia pyxidaria [2] and in the assay with Lindernia pyxidaria [6] was 80% in each case. Besides, the “weed suppression rate, Monochoria vaginalis” value with Monochoria vaginalis [3] and in the assay with Monochoria vaginalis [7] was 80% in each case. For the same molecule, the “weed suppression rate, Scirpus juncoides” value in the assay on Scirpus juncoides [4] and with Scirpus juncoides [8] was 90% throughout. The “herbicidal effect … Amaranthus viridis” value in the assay with Amaranthus viridis [9] and in the assay on Amaranthus viridis [13] was 90% in each case. The “herbicidal effect … Chenopodium album” value with Chenopodium album [10] and in the assay on Chenopodium album [14] was 80% throughout. Further, the “herbicidal effect … Echinochloa crus-galli” value with Echinochloa crus-galli [11] and with Echinochloa crus-galli [15] was 80% each time. The “herbicidal effect … Crabgrass” value in the assay on crabgrass [12] and in the assay with crabgrass [16] was 90% in each case.
For the molecule `CCC(C)S(=O)(=O)n1cnn(C(=O)N(c2ccc(F)cc2F)C(C)C)c1=O` (stereo not shown) [Compound 1-101], the “weed suppression rate, Echinochloa crus-galli” value in the assay on Echinochloa crus-galli [1] and in the assay with Echinochloa crus-galli [5] was 90% each time. Besides, the “weed suppression rate, Lindemia pyxidaria” value in the assay on Lindernia pyxidaria [2] and in the assay on Lindernia pyxidaria [6] was 80% each time. Further, the “weed suppression rate, Monochoria vaginalis” value in the assay with Monochoria vaginalis [3] and in the assay on Monochoria vaginalis [7] was 80% throughout. For the same molecule, the “weed suppression rate, Scirpus juncoides” value in the assay with Scirpus juncoides [4] and in the assay with Scirpus juncoides [8] was 90% in each case. Moreover, the “herbicidal effect … Amaranthus viridis” value in the assay with Amaranthus viridis [9] and in the assay with Amaranthus viridis [13] was 90% each time. Moreover, the “herbicidal effect … Chenopodium album” value in the assay with Chenopodium album [10] and in the assay on Chenopodium album [14] was 80% each time. Further, the “herbicidal effect … Echinochloa crus-galli” value in the assay on Echinochloa crus-galli [11] and with Echinochloa crus-galli [15] was 80% throughout. Besides, the “herbicidal effect … Crabgrass” value with crabgrass [12] and with crabgrass [16] was 90% in each case.
For `CC(C)N(C(=O)n1ncn(S(=O)(=O)C2CC2)c1=O)c1ccc(F)c(F)c1F` [Compound 1-203], the “weed suppression rate, Echinochloa crus-galli” value in the assay with Echinochloa crus-galli [1] and in the assay on Echinochloa crus-galli [5] was 100% in each case. The “weed suppression rate, Lindemia pyxidaria” value in the assay with Lindernia pyxidaria [2] turned out to be 100%; in the assay on Lindernia pyxidaria [6], 80%. For the same molecule, the results for the “weed suppression rate, Monochoria vaginalis” value with Monochoria vaginalis [3] and with Monochoria vaginalis [7] were 90% and 100%, respectively. The “weed suppression rate, Scirpus juncoides” value with Scirpus juncoides [4] and in the assay with Scirpus juncoides [8] was 100% in each case. Further, the “herbicidal effect … Amaranthus viridis” value in the assay on Amaranthus viridis [9] is recorded as 90%; in the assay on Amaranthus viridis [13] it was 100%. The “herbicidal effect … Chenopodium album” value in the assay on Chenopodium album [10] turned out to be 60%; in the assay on Chenopodium album [14] it was 80%. Further, the “herbicidal effect … Echinochloa crus-galli” value with Echinochloa crus-galli [11] is reported as 80%; in the assay with Echinochloa crus-galli [15], 100%. For the same molecule, the “herbicidal effect … Crabgrass” value in the assay with crabgrass [12] is 80%; in the assay with crabgrass [16] it was 100%.
`CC(C)N(C(=O)n1ncn(S(=O)(=O)C2CC2)c1=O)c1ccc(Cl)nc1Cl` [Compound 1-249]: the “weed suppression rate, Echinochloa crus-galli” value in the assay on Echinochloa crus-galli [1] and with Echinochloa crus-galli [5] was 100% throughout. The “weed suppression rate, Lindemia pyxidaria” value in the assay on Lindernia pyxidaria [2] and with Lindernia pyxidaria [6] was 90% each time. For the same molecule, the “weed suppression rate, Monochoria vaginalis” value with Monochoria vaginalis [3] and in the assay with Monochoria vaginalis [7] was 90% each time. The “weed suppression rate, Scirpus juncoides” value with Scirpus juncoides [4] and with Scirpus juncoides [8] was 90% in each case. Also, the “herbicidal effect … Amaranthus viridis” value with Amaranthus viridis [9] and in the assay on Amaranthus viridis [13] was 90% throughout. In addition, the “herbicidal effect … Chenopodium album” value in the assay on Chenopodium album [10] and in the assay with Chenopodium album [14] was 80% throughout. Also, the “herbicidal effect … Echinochloa crus-galli” value in the assay on Echinochloa crus-galli [11] and in the assay with Echinochloa crus-galli [15] was 80% in each case. For the same molecule, the “herbicidal effect … Crabgrass” value in the assay on crabgrass [12] and in the assay on crabgrass [16] was 90% each time.
